Experimental data taken from US5292736A, “Morpholinoalkylindenes as antiglaucoma agents” (Sterling Winthrop Inc., priority 1993, dated 1994).
Like-named read-outs stand apart in the source and are kept apart here.

Tests used:
[1] = target: T1, cannabinoid receptor (Rattus norvegicus, UniProt P20272); assay: cannabinoid receptor binding test (CR), predictive of antiglaucoma activity
T1 construct: Brain tissue from rats was homogenized; from tissue; host or cells: rat brain, washed homogenate membranes
T1 sequence (P20272 whole entry): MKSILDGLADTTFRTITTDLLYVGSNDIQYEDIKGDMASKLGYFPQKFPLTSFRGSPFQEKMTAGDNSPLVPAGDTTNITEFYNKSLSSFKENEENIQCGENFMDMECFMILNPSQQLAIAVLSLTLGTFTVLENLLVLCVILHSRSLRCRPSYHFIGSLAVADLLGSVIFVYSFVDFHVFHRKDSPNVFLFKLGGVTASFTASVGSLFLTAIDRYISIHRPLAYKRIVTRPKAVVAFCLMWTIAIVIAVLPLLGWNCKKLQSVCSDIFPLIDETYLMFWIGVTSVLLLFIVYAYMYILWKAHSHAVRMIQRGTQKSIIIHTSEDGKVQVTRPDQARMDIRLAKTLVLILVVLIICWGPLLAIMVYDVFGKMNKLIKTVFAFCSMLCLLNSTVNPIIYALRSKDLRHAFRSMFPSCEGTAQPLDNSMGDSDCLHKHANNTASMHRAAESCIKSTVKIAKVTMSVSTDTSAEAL
Description: (§1) In standard biological test procedures, compounds of formula I were tested for analgesic and cannabinoid receptor activity. The mouse vas deferens test correlates well with analgesic activity and has long been used to screen for such activity. Cannabinoid receptor binding is characteristic and predictive of the efficacy of intraocular pressure reducing compounds and was thus used to test the compounds of formula I for antiglaucoma activity.
Data from the cannabinoid receptor binding test (CR), predictive of antiglaucoma activity, was obtained as follows:
Brain tissue from rats was homogenized in ice cold 20 mM HEPES-NaOH, pH 7.0, diluted approximately 1:100 (w/v) with the same buffer and centrifuged at 48,000 g for 10 minutes at 4° C. The pellet was washed by resuspension and centrifugation as above. The final pellet was suspended (1:120 w/v) in 20 mM HEPES-NaOH, pH 7.0 and stored on ice for use within 1 hour.
Compounds (10 mM) were solubilized in a mixture of 0.3 N methane sulfonic acid - 13.5% ethanol. Cannabinoids were dissolved in absolute ethanol. Other compounds were dissolved in dimethylsulfoxide (DMSO). All compounds were diluted in 20 mM HEPES, pH 7.0 containing 5 mg/ml bovine serum albumin (BSA).
The final assay concentration of BSA was 1.0 mg/ml in these experiments. Final assay concentrations of ≤50 mM ethanol, ≤1×10^-3 N methane sulfonic acid, ≤2.5 mM ethanol+3×10^-4 N methane sulfonic acid or ≤3% DMSO had no effect on specific binding. The possible effects of all vehicles were controlled in each assay.
The assay was started with the addition of homogenate and the tubes incubated at 30° C. for 90 min in a shaking waterbath. Each tube contained 20 mM HEPES-NaOH buffer, pH 7.0, 1.0 mg/ml BSA, competing drug or vehicle, and 100-125 μg membrane protein in a 1 ml incubation volume. Saturation studies were conducted over 3 log units of radioligand concentration (0.1-22 nM). Specific binding was defined as the difference in binding in the presence and absence of 1.0 μM unlabeled 2-[(3-chloro-4-hydroxyphenyl)amino]benzene methanol, a molecule that is known to […] bind to cannabinoid receptors.
Samples were filtered over Whatman GF/B filters with 20 ml of 20 mM HEPES, pH 7.0, containing 0.5 mg/ml BSA. Radioactivity on the filters, expressed in dpm, was measured by liquid scintillation spectrometry. Assays were conducted in triplicate and experiments were repeated at least three times.
The results for the CR test are IC50 concentrations (in nM) or % inhibition at 1 μM and 30 μM concentrations.

[2] = test system: mouse vas deferens; assay: mouse vas deferens test (MVD), screening for analgesic activity; assay type: cell-based; conditions: considered active at 5.0 μM or less
Description: as §1
The mouse vas deferens test (MVD), a means of screening for analgesic activity, is disclosed in U.S. Pat. No. 4,840,950, which is incorporated herein by reference.

[3] = test system: acetylcholine-induced abdominal constriction; assay: acetylcholine-induced abdominal constriction test (ACH), oral; assay type: in vivo; conditions: oral administration
Description: Data obtained by the oral administration of the invention in the acetylcholine-induced abdominal constriction test (ACH), a measure of analgesic effectiveness, are expressed in the table below as the ED50 in mg/kg or as the percent inhibition at a given dose level in mg/kg. The acetyl choline-induced abdominal constriction test (ACH) is described in Brit. J. Pharmacol., 32: 295 (1968) and U.S. Pat. No. 4,581,534, incorporated herein by reference.

[4] = 1 μM; rat brain membranes, pH 7.0, 30° C., 90 min
[5] = 30 μM; rat brain membranes, pH 7.0, 30° C., 90 min
[6] = rat brain membranes, pH 7.0, 30° C., 90 min; read-out: CR IC50

Row | Structure (SMILES) | IC50 [2] | ED50 [3] | inhibition at 1 µM [1, 4] | Ach percent inhibition at 100 mg/kg [3] | also measured
1 | COc1ccc(C=C2C=C(CCN3CCOCC3)c3ccccc32)cc1 [Example 1, 4-[2-[1-[(4-methoxyphenyl)methylene]-1H-inden-3-yl)ethyl]morpholine] | 80 nM | 46 mg/kg | – | – | IC50 ([1]; read-out: CR IC50; rat brain membranes, pH 7.0, 30° C., 90 min): 58 nM
2 | C(=C1C=C(CCN2CCOCC2)c2ccccc21)c1ccccc1 [Example 2] | 79 nM | 65 mg/kg | 33% | – | –
3 | COc1ccc(C=C2C(C)=C(CCN3CCOCC3)c3ccccc32)cc1 [Example 3] | – | – | 45% | 30% | –
4 | CSc1ccc(C=C2C=C(CCN3CCOCC3)c3ccccc32)cc1 [Example 4] | – | 50 mg/kg | 96% | – | –
5 | Fc1ccc(C=C2C=C(CCCN3CCOCC3)c3ccccc32)cc1 [Example 5] | – | 52 mg/kg | – | – | inhibition at 30 µM [1, 5]: 5%
6 | CN(C)c1ccc(C=C2C=C(CCN3CCOCC3)c3ccccc32)cc1 [Example 6] | – | 103 mg/kg | – | – | inhibition at 30 µM [1, 5]: 88%
7 | Fc1ccccc1C=C1C=C(CCN2CCOCC2)c2ccccc21 [Example 7] | – | 86 mg/kg | – | – | inhibition at 30 µM [1, 5]: 78%
8 | COc1ccc(C=C2C=C(CCN3CCOCC3)c3ccccc32)c2ccccc12 [Example 8] | 8 nM | 3.2 mg/kg | – | – | IC50 [1, 6]: 0.9 nM
9 | C(=C1C=C(CCN2CCOCC2)c2ccccc21)c1cccc2ccccc12 [Example 9] | 7 nM | – | – | – | IC50 [1, 6]: 1 nM; Ach percent inhibition at 10 mg/kg ([3]; 10 mg/kg): 83%
10 | CC1=C(CCN2CCOCC2)c2ccccc2C1=Cc1cccc2ccccc12 [Example 10] | 45 nM | 34 mg/kg | – | – | IC50 [1, 6]: 10 nM
11 | CC1=C(CCN2CCOCC2)c2ccccc2C1=Cc1ccnc2ccccc12 [Example 11] | 1650 nM | – | – | 40% | –
12 | C(=C1C=C(CCCN2CCOCC2)c2ccccc21)c1cccc2ccccc12 [Example 12] | 96 nM | – | 97% | 30% | –
13 | COc1ccc(C=C2C=C(CCN3CCOCC3)c3ccccc32)cc1OC [Example 13] | 19 nM | 19 mg/kg | – | – | IC50 [1, 6]: 28 nM
14 | C(=Cc1ccccc1)C=C1C=C(CCN2CCOCC2)c2ccccc21 [Example 14] | – | – | 68% | 20% | –
15 | COc1ccc(C=C2C=C(CCCN3CCOCC3)c3ccccc32)c2ccccc12 [Example 15] | – | – | – | 10% | IC50 [1, 6]: 12 nM
16 | COc1ccc(C=C2C(C)=C(CCN3CCOCC3)c3ccccc32)c2ccccc12 [Example 16] | 350 nM | – | – | 30% | –
17 | N#Cc1ccc(C=C2C=C(CCN3CCOCC3)c3ccccc32)cc1 [Example 17] | – | 100 mg/kg | 76% | – | –
18 | C(=C1C=C(CCN2CCOCC2)c2ccccc21)c1cccc2[nH]ccc12 [Example 18] | 310 nM | 15 mg/kg | – | – | –
19 | Oc1ccc(C=C2C=C(CCN3CCOCC3)c3ccccc32)c2ccccc12 [Example 19] | – | 2.7 mg/kg | 97% | – | –
20 | C(=C1C=C(CCN2CCOCC2)c2ccccc21)c1c2ccccc2cc2ccccc12 [Example 20] | 812 nM | – | – | – | –
21 | C[S+]([O-])c1ccc(C=C2C=C(CCN3CCOCC3)c3ccccc32)cc1 (centres unmarked) [Example 21, 4-[2-[[1-[4-(methylsulfinyl)phenyl]methylene]-1H-inden-3-yl]ethyl]morpholine] | 193 nM | 25 mg/kg | – | – | –
22 | COc1ccc(C(=O)OC(=C2C=C(CCN3CCOCC3)c3ccccc32)c2ccc(OC)cc2)cc1 [Example 22, (4-methoxyphenyl)[3-(2-[4-morpholinyl)ethyl)-1H-inden-1-ylidine]methyl 4-methoxy benzoate] | – | – | 51% | 10% | –
